In US7052859B2, “MUCIN 4 expression as a marker for pancreatic cancer” (The Board of Regents of the University of Nebraska, priority 2000, dated 2006):
Ends that are not written are not given here.

B1: TGF-β2: growth factor from R&D systems; produced and secreted by pancreatic cancer cell lines (protein, UniProt P61812 303-414, looked up)
Transforming growth factor …: ALDAAYCFRNVQDNCCLRPLYIDFKRDLGWKWIHEPKGYNANFCAGACPYLWSSDTQHSRVLSLYNTINPEASASPCCVSQDLEPLTILYYIGKTPKIEQLSNMIVKSCKCS

Key:
MUC4 peptides = test: Immunogenicity of KLH-conjugated MUC4 peptides in rabbits (serum antibody titre); format: in vivo, rabbit; conditions: ten weeks after immunization with KLH-conjugated peptide
Experimental: The present invention also provides antibodies capable of immunospecifically binding to MUC4. Polyclonal antibodies directed toward human MUC4 protein may be prepared according to standard methods. In a preferred embodiment, monoclonal antibodies are prepared, which react immunospecifically with the various epitopes of the MUC4 protein. Monoclonal antibodies have been prepared according to general methods of Kohler and Milstein, following standard protocols.

[1] = tested on: MUC4 mRNA expression in PBMC; test: MUC4 mRNA expression (RT-PCR) in PBMC from healthy volunteers after incubation with cytokines, growth factors or mitogens; format: cell-based, human; conditions: incubated 24 and 48 hours, serum free, retinoic acid 100 nM, 1 μM, TGF-β2 10, 20 and 200 pg/ml
Experimental: Freshly prepared PBMC (10×10^6 cells) from healthy volunteers were stimulated with PHA (10 μg/ml) and LPS (20 μg/ml, all from Sigma) for 12 and 24 hours. To study the effect of different cytokines and growth factors on the MUC4 mRNA expression, 10 million PBMC were incubated with TGF-β1 (10; 20 and 200 pg/ml), TGF-β2 (10; 20 and 200 pg/ml) (all from R&D systems, Minneapolis, Minn.), retinoic acid (RA) (100 nM; 1 μM) (Sigma), GM-CSF (100 U/ml) (Immunex Corp. Seattle, Wash.), IL-1β (10 ng/ml), IL-6 (10 ng/ml), IL-9 (50 ng/ml), IFNγ (10 and 20 ng/ml), TNFα (10 and 50 ng/ml) or with IFNγ (10 and 20 ng/ml) in combination with TNFα (10 and 50 ng/ml) (all from PeproTech Inc., Rocky Hill, N.J.) for 24 and 48 hours under serum free conditions.
The single step RNA isolation method was used for RNA preparation as previously described (28,29). In brief, cells were homogenized in a denaturing solution containing 4 M guanidine thiocyanate. The homogenate was mixed sequentially with 2 M sodium acetate (pH 4), phenol and chloroform/isoamyl alcohol. […] The RNA pellet was then resuspended in diethyl pyrocarbonate (DEPC)-treated water, and the final RNA concentration was determined spectrophotometrically by measuring the absorbance at 260 nm and 280 nm (DU 640B, Beckman Coulter, Fullstone Calif.). […]

[2] = tested on: MUC4 expression in pancreatic cancer cells; conditions: previous work (31); cited from earlier work

Molecule | antibody titre of rabbit sera reacting specifically with the peptide (MUC4 peptides) | induction of MUC4 mRNA expression in PBMC [1] | MUC4 expression after treatment [2]
ATYRPPQPAWMFGD (also: KLH conjugate; listed as Homo sapiens) [MUC4 α, MUC4 peptide synthesized and conjugated to the KLH protein as an immunogen] | 47,338 units | – | –
GARFSYFLNSAEALP (also: KLH conjugate; listed as Homo sapiens) [MUC4 β, MUC4 peptide synthesized and conjugated to the KLH protein as an immunogen] | 31,108 units | – | –
B1 | – | neither incubation with retinoic acid and TGF-β2 nor the activation of T-cells and B-cells with PHA and LPS or incubation with various other cytokines induced MUC4 mRNA expression | resulted in MUC4 expression
